In patent publication US11248234B2, “Herbicide-resistant hydroxyphenylpyruvate dioxygenases” (BASF SE, priority 2015, dated 2022):

Key:
Experiment in all cases: In vitro HPPD activity assay
Conditions in all cases: normalized on Arabidopsis wild-type HPPD (SEQ ID NO:42)
[1] = target: Scenedesmus Short HPPD (Seq ID: 4) (Tetradesmus obliquus, UniProt A0A383WMN4, DEL398-433/N195D); format: biochemical
In short: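 Mutant HPPD activity is followed as homogentisic acid formed from 0.05 mM 4-HPP over 45 min, detected electrochemically after UPLC. IC50 values come from non-linear regression, and Km and Vmax from a substrate inhibition model.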

[2] = system: SoHPPD E345Q (short); format: biochemical, Scenedesmus obliquus
Protocol: (§1) HPPD produces homogentisic acid and CO2 from 4-hydroxyphenylpyruvate (4-HPP) and O2. The activity assay for HPPD is based on the analysis of homogentisic acid by reversed phase HPLC.
(§2) The assay mixture can contain 150 mM potassium phosphate buffer pH 7.0, 50 mM L-ascorbic acid, 100 μM Catalase (Sigma-Aldrich), 1 μM FeSO4 and 0.2 units of purified mutated HPPD enzyme in a total volume of 505 μl. 1 unit is defined as the amount of enzyme that is required to produce 1 nmol of HGA per minute at 20° C.
(§3) After a preincubation of 30 min the reaction is started by adding 4-HPP to a final concentration of 0.05 mM. The reaction is allowed to proceed for 45 min at room temperature. The reaction is stopped by the addition of 50 μl of 4.5 M phosphoric acid. The sample is filtered using a […] pore size PVDF filtration device.
(§4) 5 μl of the cleared sample is analyzed on an UPLC HSS T3 column (particle size 1.8 μm, dimensions 2.1×50 mm; Waters) by isocratic elution using 90% 20 mM NaH2PO4 pH 2.2, 10% methanol (v/v).
(§5) HGA is detected electrochemically at 750 mV (mode: DC; polarity: positive) and quantified by integrating peak areas (Empower software; Waters).
(§6) Inhibitors are dissolved in DMSO (dimethylsulfoxide) to a concentration of 0.5 mM. From this stock solution serial five-fold dilutions are prepared in DMSO, which are used in the assay. The respective inhibitor solution accounts for 1% of the assay volume. Thus, final inhibitor concentrations range from 5 μM to 320 pM, respectively. Activities are normalized by setting the uninhibited enzyme activity to 100%. IC50 values are calculated using non-linear regression.
(§7) Using methods which are described in the above examples or well known in the art, purified, recombinant mutated HPPD enzymes are characterized with respect to their kinetic properties and sensitivity towards HPPD inhibiting herbicides. Apparent michaelis constants (Km) and maximal reaction velocities (Vmax) are calculated by non-linear regression with the software GraphPad Prism 5 (GraphPad Software, La Jolla, USA) using a substrate inhibition model. Apparent kcat values are calculated from Vmax assuming 100% purity of the enzyme preparation. Weighted means (by standard error) of Km and IC50 values are calculated from at least three independent experiments. The Cheng-Prusoff equation for competitive inhibition (Cheng, Y. C.; Prusoff, W. H. Biochem Pharmacol 1973, 22, 3099-3108) is used to calculate dissociation constants (Ki).
(§8) Field performance of the HPPD enzyme, which is used as a herbicide tolerance trait may depend not only on its lack of sensitivity towards HPPD inhibiting herbicides but also on its activity. To assess the potential performance of a herbicide tolerance trait a tolerance index (TI) is calculated using the following formula: […]
(§9) Easy comparison and ranking of each trait is enabled by normalizing tolerance indexes on Arabidopsis wild-type HPPD.

[3] = system: SoHPPD E379Q (short); format: biochemical, Scenedesmus obliquus
Protocol: as §1, §2, §3, §4, §5, §6, §7, §8, §9

[4] = system: SoHPPD L367V, I375L (short); format: biochemical, Scenedesmus obliquus
Protocol: as §1, §2, §3, §4, §5, §6, §7, §8, §9

[5] = system: SoHPPD A318R, L350M; format: biochemical, Scenedesmus obliquus
Protocol: as §1, §2, §3, §4, §5, §6, §7, §8, §9

[6] = system: SoHPPD Q317H; format: biochemical, Scenedesmus obliquus
Protocol: as §1, §2, §3, §4, §5, §6, §7, §8, §9

[7] = system: SoHPPD Q317H, A318G, E345Q (short); format: biochemical, Scenedesmus obliquus
Protocol: as §1, §2, §3, §4, §5, §6, §7, §8, §9

[8] = system: SoHPPD F363I (short); format: biochemical, Scenedesmus obliquus
Protocol: as §1, §2, §3, §4, §5, §6, §7, §8, §9

[9] = system: SoHPPD I419V (short); format: biochemical, Scenedesmus obliquus
Protocol: as §1, §2, §3, §4, §5, §6, §7, §8, §9

[10] = system: SoHPPD Q317H, A318G, E345Q; format: biochemical, Scenedesmus obliquus
Protocol: as §1, §2, §3, §4, §5, §6, §7, §8, §9

[11] = system: SoHPPD A318R, L350M (short); format: biochemical, Scenedesmus obliquus
Protocol: as §1, §2, §3, §4, §5, §6, §7, §8, §9

[12] = system: SoHPPD L367V, I375L; format: biochemical, Scenedesmus obliquus
Protocol: as §1, §2, §3, §4, §5, §6, §7, §8, §9

[13] = system: SoHPPD K326E, E345Q (short); format: biochemical, Scenedesmus obliquus
Protocol: as §1, §2, §3, §4, §5, §6, §7, §8, §9

[14] = system: SoHPPD F39W, L367V, I375L (short); format: biochemical, Scenedesmus obliquus
Protocol: as §1, §2, §3, §4, §5, §6, §7, §8, §9

[15] = system: SoHPPD E345Q, K326Q (short); format: biochemical, Scenedesmus obliquus
Protocol: as §1, §2, §3, §4, §5, §6, §7, §8, §9

[16] = system: SoHPPD Q317M (short); format: biochemical, Scenedesmus obliquus
Protocol: as §1, §2, §3, §4, §5, §6, §7, §8, §9

[17] = system: SoHPPD V251A, H306R, Q317L, A318P, G321P, K331E, L350M (short); format: biochemical, Scenedesmus obliquus
Protocol: as §1, §2, §3, §4, §5, §6, §7, §8, §9

[18] = system: SoHPPD I455V; format: biochemical, Scenedesmus obliquus
Protocol: as §1, §2, §3, §4, §5, §6, §7, §8, §9

[19] = system: SoHPPD R327G, E421D (short); format: biochemical, Scenedesmus obliquus
Protocol: as §1, §2, §3, §4, §5, §6, §7, §8, §9

[20] = system: SoHPPD V251A (short); format: biochemical, Scenedesmus obliquus
Protocol: as §1, §2, §3, §4, §5, §6, §7, §8, §9

[21] = system: SoHPPD A318P, A319P (short); format: biochemical, Scenedesmus obliquus
Protocol: as §1, §2, §3, §4, §5, §6, §7, §8, §9

[22] = system: SoHPPD F363I; format: biochemical, Scenedesmus obliquus
Protocol: as §1, §2, §3, §4, §5, §6, §7, §8, §9

[23] = system: SoHPPD Q317H (short); format: biochemical, Scenedesmus obliquus
Protocol: as §1, §2, §3, §4, §5, §6, §7, §8, §9

[24] = system: SoHPPD H306K (short); format: biochemical, Scenedesmus obliquus
Protocol: as §1, §2, §3, §4, §5, §6, §7, §8, §9

[25] = system: SoHPPD E345Q, K326D (short); format: biochemical, Scenedesmus obliquus
Protocol: as §1, §2, §3, §4, §5, §6, §7, §8, §9

Chain of Scenedesmus Short HPPD (Seq ID: 4) (A0A383WMN4 entry or part of it N195D/DEL398-433): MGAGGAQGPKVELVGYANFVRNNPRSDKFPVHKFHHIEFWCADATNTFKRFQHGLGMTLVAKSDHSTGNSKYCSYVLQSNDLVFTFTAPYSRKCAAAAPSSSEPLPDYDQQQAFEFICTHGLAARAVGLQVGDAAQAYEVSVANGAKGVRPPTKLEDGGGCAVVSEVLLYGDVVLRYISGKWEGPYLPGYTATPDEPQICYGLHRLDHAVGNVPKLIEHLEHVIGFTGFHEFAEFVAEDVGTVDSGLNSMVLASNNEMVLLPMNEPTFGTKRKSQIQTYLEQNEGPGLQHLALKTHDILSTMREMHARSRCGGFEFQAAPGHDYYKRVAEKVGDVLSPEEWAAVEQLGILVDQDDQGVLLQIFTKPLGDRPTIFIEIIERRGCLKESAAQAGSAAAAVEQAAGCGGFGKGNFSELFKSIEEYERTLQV

## CC(=O)N(C)c1c(Cl)ccc(C2=C(O)c3ncccc3C(C)(C)S2(=O)=O)c1Cl [Inhibitor 5, N-[2,6-dichloro-3-(8-hydroxy-5,5-dimethyl-6,6-dioxo-thiopyrano[4,3-b]pyridin-7-yl)phenyl]-N-methyl-acetamide]
[1]
  TI (normalized tolerance index): 1.3
[2]
  TI (normalized tolerance index): 0.2
[3]
  TI (normalized tolerance index): 0.0
[4]
  TI (normalized tolerance index): 0.3
[5]
  TI (normalized tolerance index): 0.2
[6]
  TI (normalized tolerance index): 0.2
[7]
  TI (normalized tolerance index): 0.9
[8]
  TI (normalized tolerance index): 0.6
[9]
  TI (normalized tolerance index): 0.1
[10]
  TI (normalized tolerance index): 0.2
[11]
  TI (normalized tolerance index): 0.7
[12]
  TI (normalized tolerance index): 0.1
[13]
  TI (normalized tolerance index): 0.0
[14]
  TI (normalized tolerance index): 0.1
[15]
  TI (normalized tolerance index): 0.2
[16]
  TI (normalized tolerance index): 0.9
[17]
  TI (normalized tolerance index): 0.3
[18]
  TI (normalized tolerance index): 0.7
[19]
  TI (normalized tolerance index): 0.3
[20]
  TI (normalized tolerance index): 0.0
[21]
  TI (normalized tolerance index): 0.5
[22]
  TI (normalized tolerance index): 0.4
[23]
  TI (normalized tolerance index): 0.4
[24]
  TI (normalized tolerance index): 0.2
[25]
  TI (normalized tolerance index): 0.2
